According to ChEMBL document CHEMBL5518237, “Design of Novel 2-Phenylquinazolin-4-amines as Selective CYP1B1 Inhibitors for Overcoming Paclitaxel Resistance in A549 Cells” (J Med Chem, 2024):
Activity calls are given as the source filed them. The rule behind the calls is not given here.

Tests used:
HEK-293T = assay: Cytotoxicity against human HEK293T cells assessed as reduction in cell viability at 0.625 to 20 uM incubated for 48 hrs by MTT assay; type: toxicity, cell-based; conditions: dose 0.625-20 µM
CYP1A2 versus CYP1B1 = assay: (§1) Selectivity ratio of IC50 for Inhibition of human recombinant CYP1A2 to IC50 for Inhibition of human recombinant CYP1B1; type: ADME; conditions: recombinant CYP1A2 and recombinant CYP1B1, read-out: Ratio IC50
Cytochrome P450 1A1 = biological target: T1, Cytochrome P450 1A1 (Homo sapiens, UniProt P04798); assay: Inhibition of human recombinant CYP1A1 using 7-ethoxyresorufin as substrate preincubated with enzyme for 5 mins followed by fluorescent substrate and NADPH addition and measured after 15 mins by EROD assay; type: ADME
T1 sequence (P04798 whole entry): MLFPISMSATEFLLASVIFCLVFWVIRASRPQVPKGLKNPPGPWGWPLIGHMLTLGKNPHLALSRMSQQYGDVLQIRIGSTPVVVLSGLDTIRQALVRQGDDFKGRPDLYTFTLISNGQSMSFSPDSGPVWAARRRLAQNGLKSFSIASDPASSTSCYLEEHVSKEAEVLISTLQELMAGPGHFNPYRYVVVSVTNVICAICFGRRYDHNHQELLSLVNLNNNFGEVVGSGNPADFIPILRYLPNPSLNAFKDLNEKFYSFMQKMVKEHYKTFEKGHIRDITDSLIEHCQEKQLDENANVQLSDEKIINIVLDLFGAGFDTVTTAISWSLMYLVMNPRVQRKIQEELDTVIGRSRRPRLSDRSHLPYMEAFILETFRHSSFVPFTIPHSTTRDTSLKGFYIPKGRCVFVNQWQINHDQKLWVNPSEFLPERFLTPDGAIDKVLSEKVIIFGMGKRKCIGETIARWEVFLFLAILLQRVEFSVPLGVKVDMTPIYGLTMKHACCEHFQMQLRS

CYP1A1 versus CYP1B1 = assay: (§2) Selectivity ratio of IC50 for Inhibition of human recombinant CYP1A1 to IC50 for Inhibition of human recombinant CYP1B1; type: ADME; conditions: recombinant CYP1A1 and recombinant CYP1B1, read-out: Ratio IC50
Cytochrome P450 1A2 = biological target: T2, Cytochrome P450 1A2 (Homo sapiens, UniProt P05177); assay: Inhibition of human recombinant CYP1A2 using 7-ethoxyresorufin as substrate preincubated with enzyme for 5 mins followed by fluorescent substrate and NADPH addition and measured after 50 mins by EROD assay; type: ADME
T2 sequence (P05177 whole entry): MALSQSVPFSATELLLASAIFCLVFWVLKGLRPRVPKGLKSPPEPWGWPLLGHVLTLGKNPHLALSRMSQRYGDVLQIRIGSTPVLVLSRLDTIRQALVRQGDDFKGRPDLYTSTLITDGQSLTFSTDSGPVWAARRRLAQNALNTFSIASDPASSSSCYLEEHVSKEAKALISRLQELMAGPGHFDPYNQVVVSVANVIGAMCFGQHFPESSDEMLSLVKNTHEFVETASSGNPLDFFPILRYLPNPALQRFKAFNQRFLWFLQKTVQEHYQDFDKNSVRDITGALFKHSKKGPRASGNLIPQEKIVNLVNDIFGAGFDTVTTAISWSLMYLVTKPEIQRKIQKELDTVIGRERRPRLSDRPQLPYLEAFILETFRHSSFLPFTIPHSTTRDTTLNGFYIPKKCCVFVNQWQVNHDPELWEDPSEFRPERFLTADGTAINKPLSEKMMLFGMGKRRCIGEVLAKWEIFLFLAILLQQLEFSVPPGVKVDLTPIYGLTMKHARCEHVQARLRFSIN

A549 [1] = assay: Induction of apoptosis in DMBA-stimulated PTX resistant human A549 cells assessed as apoptosis rate at 5 uM incubated for 24 hrs by flow cytometry (reference value: 6.67 +/- 1.03%); type: functional
Cytochrome P450 1B1 = biological target: T3, Cytochrome P450 1B1 (Homo sapiens, UniProt Q16678); assay: Inhibition of human recombinant CYP1B1 using 7-ethoxyresorufin as substrate preincubated with enzyme for 5 mins followed by fluorescent substrate and NADPH addition and measured after 35 mins by EROD assay; type: ADME
T3 sequence (Q16678 whole entry): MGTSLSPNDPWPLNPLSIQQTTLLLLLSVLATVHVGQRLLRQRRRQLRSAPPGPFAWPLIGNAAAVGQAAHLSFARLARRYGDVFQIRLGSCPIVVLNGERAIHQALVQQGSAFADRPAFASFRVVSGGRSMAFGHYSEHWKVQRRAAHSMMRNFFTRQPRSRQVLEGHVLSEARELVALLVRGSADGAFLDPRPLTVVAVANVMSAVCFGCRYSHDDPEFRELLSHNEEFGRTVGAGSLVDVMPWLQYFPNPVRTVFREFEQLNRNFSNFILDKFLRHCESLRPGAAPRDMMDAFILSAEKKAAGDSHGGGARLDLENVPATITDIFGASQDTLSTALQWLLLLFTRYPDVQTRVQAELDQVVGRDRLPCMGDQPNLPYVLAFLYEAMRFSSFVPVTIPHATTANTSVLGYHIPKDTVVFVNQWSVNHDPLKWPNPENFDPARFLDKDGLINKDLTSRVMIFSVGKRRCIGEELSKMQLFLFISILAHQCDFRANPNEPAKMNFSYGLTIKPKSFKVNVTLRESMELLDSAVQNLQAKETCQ

CYP1B1 [2] = biological target: T4, CYP1B1 (Homo sapiens, UniProt Q16678); assay: Inhibition of human recombinant CYP1B1 using 7-ethoxyresorufin as substrate at 0.01 uM preincubated with enzyme for 5 mins followed by fluorescent substrate and NADPH addition and measured after 35 mins by EROD assay; type: ADME; conditions: recombinant CYP1B1, probe 7-ethoxyresorufin, time 40 min
T4 sequence (Q16678 whole entry): T3 sequence (Q16678 whole entry)

[3] = n-Octanol/water partition coefficient, logP of the compound by HPLC analysis; type: physicochemical; conditions: n-octanol/water; read-out: logP
CYP1B1 [4] = biological target: T4, CYP1B1; assay: Inhibition of human recombinant CYP1B1 using 7-ethoxyresorufin as substrate at 1 uM preincubated with enzyme for 5 mins followed by fluorescent substrate and NADPH addition and measured after 35 mins by EROD assay; type: ADME; conditions: recombinant CYP1B1, probe 7-ethoxyresorufin, time 40 min
A549 [5] = assay: Cytotoxicity against human A549 cells assessed as reduction in cell viability at 0.625 to 20 uM incubated for 48 hrs by MTT assay; type: toxicity, cell-based; conditions: a549, 48 h, dose 0.625-20 µM
A549 [6] = assay: Inhibition of tumor metastasis in DMBA-stimulated PTX resistant human A549 cells assessed as inhibition of cell invasion at 10 uM incubated for 24 hrs by Transwell assay; type: functional, cell-based
A549 [7] = assay: Inhibition of tumor metastasis in DMBA-stimulated PTX resistant human A549 cells assessed as inhibition of cell migration at 10 uM incubated for 48 hrs by wound healing assay; type: functional, cell-based
A549 [8] = assay: Reversal of DMBA-stimulated PTX resistance in human A549 cells assessed as decrease in cell viability at 10 uM incubated for 24 hrs in presence of DMBA and paclitaxel by MTT assay; type: functional, cell-based
[9] = Drug metabolism in mouse xenografted with human HCT-116 cells assessed as deiodination treated with radiolabeled compound at 0.37 MBq, iv measured after 240 mins by gamma-counting analysis; type: ADME, organism-based; conditions: 4 h
[10] = Drug uptake in human A549 cells using radiolabeled compound at 0.037 MBq incubated for 120 mins by gamma-counting analysis; type: ADME, cell-based; conditions: a549, 2 h
[11] = Drug uptake in HCT-116 cells bearing mouse assessed as ratio of radioactive accumulation in tumor to muscle treated with radiolabeled compound at 0.37 MBq, iv measured after 30 mins by gamma-counting analysis; type: ADME, organism-based; conditions: in vivo, 0.5 h
[12] = Drug uptake in human HCT-116 cells using radiolabeled compound at 0.037 MBq incubated for 240 mins by gamma-counting analysis; type: ADME, cell-based; conditions: hct-116, 4 h
[13] = as §1; type: ADME; conditions: recombinant enzyme
[14] = Drug uptake in HCT-116 cells bearing mouse assessed as ratio of radioactive accumulation in tumor to muscle treated with radiolabeled compound at 0.37 MBq, iv measured after 240 mins by gamma-counting analysis; type: ADME, organism-based; conditions: in vivo, 4 h
[15] = n-Octanol/PBS partition coefficient, log D of the radiolabeled compound at 0.37 MBq at pH 7.4 by gamma-counting analysis; type: physicochemical; conditions: octanol/water
[16] = Drug uptake in Kunming mouse intestine assessed as radioactive accumulation treated with radiolabeled compound at 0.37 MBq, iv measured after 120 mins by gamma-counting analysis; type: ADME, organism-based; conditions: in vivo, 2 h
[17] = Drug metabolism in Kunming mouse assessed as deiodination treated with radiolabeled compound at 0.37 MBq, iv measured after 120 mins by gamma-counting analysis; type: ADME, organism-based; conditions: in vivo, 2 h
[18] = Drug uptake in liver of mouse xenografted with human HCT-116 cells assessed as radioactive accumulation treated with radiolabeled compound at 0.37 MBq, iv measured after 240 mins by gamma-counting analysis; type: ADME, organism-based; conditions: in vivo, 4 h
[19] = Drug uptake in Kunming mouse kidney assessed as radioactive accumulation treated with radiolabeled compound at 0.37 MBq, iv measured after 120 mins by gamma-counting analysis; type: ADME, organism-based; conditions: in vivo, 2 h
[20] = as §2; type: ADME; conditions: recombinant enzyme
[21] = Drug uptake in Kunming mouse thyroid assessed as radioactive accumulation treated with radiolabeled compound at 0.37 MBq, iv measured after 120 mins by gamma-counting analysis; type: ADME, organism-based, Thyroid gland; conditions: in vivo, 2 h
[22] = Drug uptake in human HCT-116 cells using radiolabeled compound at 0.037 MBq incubated for 120 mins by gamma-counting analysis; type: ADME, cell-based; conditions: hct-116, 2 h
[23] = Drug uptake in intestine of mouse xenografted with human HCT-116 cells assessed as radioactive accumulation treated with radiolabeled compound at 0.37 MBq, iv measured after 240 mins by gamma-counting analysis; type: ADME, organism-based; conditions: in vivo, 4 h
[24] = Drug uptake in human HEK293T cells using radiolabeled compound at 0.037 MBq incubated for 120 mins by gamma-counting analysis; type: ADME, cell-based; conditions: hek-293t, 2 h
[25] = Drug uptake in Kunming mouse lungs assessed as radioactive accumulation treated with radiolabeled compound at 0.37 MBq, iv measured after 120 mins by gamma-counting analysis; type: ADME, organism-based, Lung; conditions: in vivo, 2 h
[26] = Drug uptake in kidney of mouse xenografted with human HCT-116 cells assessed as radioactive accumulation treated with radiolabeled compound at 0.37 MBq, iv measured after 240 mins by gamma-counting analysis; type: ADME, organism-based; conditions: in vivo, 4 h
A549 [27] = assay: Inhibition of tumor metastasis in DMBA-stimulated PTX resistant human A549 cells assessed as inhibition of cell migration by measuring decrease in crawling ability of cells at 2.5 to 10 uM incubated for 48 hrs by wound healing assay; type: functional, cell-based; conditions: dose 2.5-10 µM
A549 [28] = assay: Reversal of DMBA-stimulated PTX resistance in human A549 cells assessed as decrease in cell viability at 1.25 to 10 uM incubated for 24 hrs in presence of DMBA and paclitaxel by MTT assay; type: functional, cell-based; conditions: dose 1.25-10 µM

Structure (SMILES): Cl.FCCNc1nc(-c2ccc(I)cc2)nc2ccccc12
- Activity (HEK-293T): Non-Toxic
- selectivity ratio (CYP1A2 versus CYP1B1): 4030
- IC50 (Cytochrome P450 1A1): 33.2 nM
- selectivity ratio (CYP1A1 versus CYP1B1): 221
- IC50 (Cytochrome P450 1A2): 604 nM
- Activity (A549 [1]): 21.05%
- IC50 (Cytochrome P450 1B1): 0.15 nM
- inhibition at 35 min, 0.01 µM (CYP1B1 [2]): 90.1%
- logP [3]: 3.91
- inhibition at 35 min, 1 µM (CYP1B1 [4]): 95.5%
- Activity (A549 [5]): Non-Toxic

Structure (SMILES): O=c1cc(-c2ccccc2)oc2c1ccc1ccccc12 [ALPHA-NAPHTHOFLAVONE]
- inhibition (A549 [6]): Active
- IC50 (Cytochrome P450 1A1): 86.7 nM
- inhibition (A549 [7]): Active
- Activity (A549 [1]): 15.53%
- inhibition at 35 min, 0.01 µM (CYP1B1 [2]): 61%
- inhibition at 35 min, 1 µM (CYP1B1 [4]): 95.1%
- Activity (A549 [8]): Active

Structure (SMILES): Nc1nc(-c2ccc(I)cc2)nc2ccccc12
- Drug metabolism [9]: Metabolite_Notdetected
- Drug uptake [10]: Active
- Ratio [11]: 1.27
- Drug uptake [12]: 23.95%
- Ratio IC50 [13]: 6.23 10^4No_unit
- Ratio [14]: 1.84
- logD [15]: 3.24
- Drug uptake [16]: Active
- Drug metabolism [17]: Metabolite_Notdetected
- Drug uptake [18]: Active
- Drug uptake [19]: Active
- IC50 (Cytochrome P450 1A1): 5.74 nM
- Ratio IC50 [20]: 287
- Drug uptake [21]: Active
- Drug uptake [22]: Active
- Drug uptake [23]: Active
- Drug uptake [24]: Active
- IC50 (Cytochrome P450 1A2): 1240 nM
- Drug uptake [25]: Active
- Drug uptake [26]: Active

Structure (SMILES): CNc1nc(-c2ccc(I)cc2)nc2ccccc12
- inhibition (A549 [27]): Active
- Activity (A549 [28]): Active

Structure (SMILES): CCNc1nc(-c2ccc(I)cc2)nc2ccccc12.Cl
- Activity (HEK-293T): Non-Toxic
- IC50 (Cytochrome P450 1A1): 85.8 nM
- Ratio IC50 [20]: 2.07 10^6No_unit
- IC50 (Cytochrome P450 1A2): 1500 nM
- Activity (A549 [1]): 26.15%
- inhibition at 35 min, 0.01 µM (CYP1B1 [2]): 93.7%
- logP [3]: 3.81
- inhibition at 35 min, 1 µM (CYP1B1 [4]): 95.2%
- Activity (A549 [5]): Non-Toxic
